Measurements reported in US8173428B2, “LNA oligonucleotides and the treatment of cancer” (Santaris Pharma A/S, priority 2004, dated 2012).
Oligonucleotides are written 5' to 3', each unit as a sugar letter and its base; * is a phosphorothioate linkage, no mark a phosphodiester; rarer units and linkages stand in square brackets, end groups in braces. Plain capitals give the bases only. l = locked nucleic acid (LNA); [5mC] = 5-methylcytosine; d = 2'-deoxy (DNA)

What was measured:
Survivin protein [1] = assay: Western blot analysis of Survivin protein levels in transfected 15PC3 cells; format: cell-based, human; settings: 1, 10 and 25 nM, 12, 24 and 48 hours, compared with mock
Procedure: Cell culturing and transfections: 15PC3 cells were seeded in 12-well plates and grown for two days at 37° C. (5% CO2) in DMEM supplemented with 10% FBS, Glutamax I and Gentamicin. When the cells were 60-70% confluent, they were transfected in duplicates with different concentrations of oligonucleotides (0.2-25 nM) using Lipofectamine 2000 (10 μg/ml). Transfections were carried out essentially as described by Dean et al. (1994, JBC 269:16416-16424). In short, cells were incubated for 10 min. with Lipofectamine in OptiMEM followed by addition of oligonucleotide to a total volume of 0.5 ml transfection mix per well. After 4 hours, the transfection mix was removed, cells were washed and grown at 37° C. for approximately 20 hours (mRNA analysis) or 12-72 hours (protein analysis) in the appropriate growth medium. Cells were then harvested for protein and RNA analysis.
The in vitro effect of Survivin oligoes on Survivin protein levels in transfected cells was determined by Western Blotting.
Cells were harvested and lysed in 50 mM Tris-HCl pH 6.8, 10% glycerol, 2.5% SDS, 5 mM DTT and 6 M urea supplemented with protease inhibitor cocktail (Roche). Total protein concentrations were measured using a BCA protein assay kit (Pierce). 50 μg total protein was run on a 12% Bis-Tris gels in MOPS buffer and blotted onto a PVDF membranes according to manufacture's instructions (Invitrogen). […]

Survivin protein [2] = assay: Tumour analysis: Survivin protein by Western blotting after intratumoural injection; format: in vivo, Balb/cA-nu mice; settings: 25 mg/kg intratumoral, 6 times over 2 weeks, sampling 24 hours after last dose, versus saline
Procedure: Model: PC-3 human prostate cancer cells (ECACC) are mixed with Matrigel and injected s.c. into both flanks of female Balb/cA-nu mice on Day 0.
Administration: Oligonucleotides i.p. (see FIG. 8) or intratumoural (see FIG. 9), Taxol i.v., all according to schedule
cDNA synthesis: First strand synthesis was performed using OmniScript Reverse Transcriptase kit according to the manufacturer's instructions (Qiagen). […] Protein levels were analysed on individual tumours by western blotting (see FIG. 9). Real time PCR analysis: To determine the relative Survivin mRNA level treated and untreated tumours, the generated cDNA was used in quantitative PCR analysis using an iCycler from BioRad. The cDNA was diluted 5-fold and 8 μl was mixed with 52 μl Taqman probe master mix containing 30 μl Platinum Quantitative PCR SuperMix UDG 2×PCR master mix (Invitrogen), 3 μl 20× Taqman probe and primer mix (forward primer: 5′-[…]-3′ (SEQ ID NO. 29), final 0.9 μM. Reverse primer: 5′-[…]-3′ (SEQ ID NO. 30), final 0.6 μM and taqman probe: FAM-5′-[…]-TAMRA-3′ (SEQ ID NO. 31), final 0.1 μM) and 19 μl H2O. […] To normalize any variance in sample preparation, the endogenous GAPDH mRNA was quantified using a pre-developed Taqman assay reagent from Applied Biosystems (4310884E) according to manufacture's instructions. […] Total protein concentrations were measured using a BCA protein assay kit (Pierce). […]

## 5′-^MeCsTs^MeCsAsastscscsastsgsgs^MeCsAsGsc-3′ (l[5mC]*lT*l[5mC]*lA*dA*dT*dC*dC*dA*dT*dG*dG*l[5mC]*lA*lG*dC) [SEQ ID NO. 2]
Survivin protein [1]
  Survivin protein expression by Western blotting: Survivin protein down-regulation
Survivin protein [2]
  Survivin protein level in tumours: reduced levels of both mRNA and Survivin protein
